Measured values as given in publication PMC8909834, “An Orally Bioavailable and Highly Efficacious Inhibitor of CDK9/FLT3 for the Treatment of Acute Myeloid Leukemia” (Cancers, 2022).

What was measured:
MARK1 = target: T1, MARK1 (Homo sapiens, UniProt Q9P0L2); experiment: Kinase Hotspot radiolabel assay; assay type: biochemical; details: read-out: % Residual Activity
T1 construct: purchased Reaction Biology Corporation (Kinase HotSpot)
Procedure: Kinase assay. The ADP Glo^TM kinase assay (Promega, Madison, WI, USA) was used to assess the inhibition by CDDD11-8 of CDKs 1, 2, 4, 6, 7, and 9, as well as the mutant isoforms of FLT3. The assays were performed in accord with the manufacturer’s protocol (Promega) as described previously. Briefly, serial three-fold dilutions of CDDD11-8 were prepared in 100% DMSO from a 2 mM stock solution, followed by 1:40 dilution into Milli-Q water. Subsequently, 1 µL of each sample was incubated with 4 µL of kinase mixture containing a particular CDK enzyme and its substrate, standard kinase buffer [3 mM MgCl2, 50 mM HEPES-NaOH pH 7.5, 3 mM MnCl2, 3 µM Na-orthovanadate, 1 mM dithiothreitol (DTT)], kinase dilution buffer (containing 0.25 mg/mL PEG20,000, 50 mM HEPES-NaOH pH 7.5, 1 mM DTT), and ATP at 37 °C for 30 to 40 min. The final reaction mixture contained 0.5% DMSO in all samples, and the applied kinase concentrations were 1, 1, 10, 40, 20, and 50 nM for CDK1, 2, 4, 6, 7, and 9, respectively. The reaction was stopped by adding ADP-Glo reagent and the mixture was incubated further in the dark at room temperature for 40 min. As a final step, kinase detection reagent was added to each mixture and incubated at room temperature for 30 to 60 min. Luminescence was read using an EnVision® multilabel plate reader (PerkinElmer, Beaconsfield, UK), and half-maximum inhibitory concentrations (IC50) were calculated using a non-linear regression model with a variable slope, plotting log (inhibitor concentration) vs. response using the following formula: Ar%=Bottom+Top−Bottom/1+Inhibitor Concentration/IC50^HillSlope where the relative activity Ar (%) is the signal relative to the controls, IC50 is the half maximum concentration, Hillslope is the steepness of the dose-response curve, Top and Bottom are plateaus reflecting the maximum and minimum in responses on the Y-axis (GraphPad Prism version 7, San Diego, CA, USA). Ki values were calculated from the IC50 using the Cheng−Prusoff equation [32]. Extensive specificity assessment was carried out by Reaction Biology Corporation (Malvern, PA, USA) with 369 kinases using 1 µM CDDD11-8 concentration in a Kinase Hotspot radiolabel assay (for experimental details, please see (Reaction Biology https://www.reactionbiology.com/). Subsequently, Ki values were determined for kinases with greater than 90% inhibition.

HL60 = experiment: Cell viability assay (resazurin); assay type: cell-based; details: Homo sapiens, HL-60; HL60, 72 h, mean ± SD
Procedure: (§1) Cell culture. MV4-11, HL60, K-562, THP-1, MO91, and U937 cell lines were from the ATCC (Rockville, MD, USA); MOLM-13, NB4, and PL21 cell lines were from the DSMZ (Braunschweig, Germany); and Jurkat cells were from the ECACC (Salisbury, UK). All cells were cultured in RPMI medium (Sigma-Aldrich) supplemented with 10% to 20% of heat-inactivated fetal bovine serum (Sigma-Aldrich), and cells were maintained at 37 °C, 5% CO2, and 95% humidity. All the cell lines were tested to be mycoplasma-negative using MycoAlert^TM mycoplasma detection kit (Lonza, Derrimut, VIC, Australia).
(§2) Cell viability assay. The viability of leukemia cell lines after incubation with CDDD11-8 was determined by their ability to reduce resazurin, as described previously. Cells (5 × 10^3) were seeded into 96-well plates (Corning Inc., Corning, NY, USA) and incubated overnight at 37 °C. Subsequently, they were incubated with CDDD11-8 (concentrations ranging from 0.003 µM to 31.6 µM; using three-fold serial dilutions) or DMSO (final concentration of 0.1%) for 72 h. Afterwards, cells were incubated with 20 µL of resazurin (0.1 mg/mL in PBS) for 4 h at 37 °C under 5% CO2, and the fluorescence intensities were measured using an EnVision® multilabel plate reader at 570 nm (excitation)/585 nm (emission). The concentration required to inhibit cellular growth by 50% (GI50) was determined using the same non-linear regression model as shown above, with Ar (%) = % cell viability, and IC50 replaced with GI50.

JURKAT = experiment: Cell viability assay (resazurin); assay type: cell-based; details: Homo sapiens, 72 h, mean ± SD
Procedure: as §1, §2

K-562 = experiment: Cell viability assay (resazurin); assay type: cell-based; details: Homo sapiens, K562; K-562, 72 h, mean ± SD
Procedure: as §1, §2

MOLM-13 = experiment: Cell viability assay (resazurin); assay type: cell-based; details: MOLM-13, 72 h, mean ± SD
Procedure: as §1, §2

NB4 = experiment: Cell viability assay (resazurin); assay type: cell-based; details: Homo sapiens, NB-4; NB4, 72 h, mean ± SD
Procedure: as §1, §2

PL21 = experiment: Cell viability assay (resazurin); assay type: cell-based; details: PL21, 72 h, mean ± SD
Procedure: as §1, §2

THP-1 = experiment: Cell viability assay (resazurin); assay type: cell-based; details: THP-1, 72 h, mean ± SD
Procedure: as §1, §2

U937 = experiment: Cell viability assay (resazurin); assay type: cell-based; details: Homo sapiens, U-937; U937, 72 h, mean ± SD
Procedure: as §1, §2

MOLM-13 cells = experiment: Cell cycle analysis (PI, flow cytometry); assay type: cell-based; details: MOLM-13, 1 µM, 24 h
Procedure: (§3) Detection of apoptosis and cell cycle analysis. Detection of apoptosis and cell cycle analysis were performed as described previously. Cells (1 × 10^5 cells/mL) were seeded into a six-well plate (Corning) and incubated overnight at 37 °C, 5% CO2 prior to incubation with different concentrations of CDDD11-8 or control (0.1% final DMSO concentration) for 6, 24, or 72 h. For washout experiments, cells were incubated with compounds for 6 h, then washed three times with 1 × PBS interspersed with centrifugation at 300× g for 5 min to remove compound. After incubation at 37 °C under 5% CO2, cells were centrifuged at 300× g for 5 min to form a pellet, washed with PBS, and incubated with Annexin V/PI (Becton Dickenson, Franklin Lakes, NJ, USA) for 15 min in the dark. For cell cycle analysis, cells were fixed with 70% ethanol (v/v, 4 °C) and incubated in the dark with cell cycle staining solution (50 µg/mL PI, 0.1 mg/mL RNase A, 0.05% Triton X-100) for 1.5 h. Samples were analyzed using a CytoFlex flow cytometer (Beckman Coulter, Brea, CA, USA). Data were analyzed with CytExpert software version 2.1 (Beckman Coulter, Brea, CA, USA).

MV4-11 cells = experiment: Cell cycle analysis (PI, flow cytometry); assay type: cell-based; details: 24 h
Procedure: as §3

T1 sequence (Q9P0L2 whole entry): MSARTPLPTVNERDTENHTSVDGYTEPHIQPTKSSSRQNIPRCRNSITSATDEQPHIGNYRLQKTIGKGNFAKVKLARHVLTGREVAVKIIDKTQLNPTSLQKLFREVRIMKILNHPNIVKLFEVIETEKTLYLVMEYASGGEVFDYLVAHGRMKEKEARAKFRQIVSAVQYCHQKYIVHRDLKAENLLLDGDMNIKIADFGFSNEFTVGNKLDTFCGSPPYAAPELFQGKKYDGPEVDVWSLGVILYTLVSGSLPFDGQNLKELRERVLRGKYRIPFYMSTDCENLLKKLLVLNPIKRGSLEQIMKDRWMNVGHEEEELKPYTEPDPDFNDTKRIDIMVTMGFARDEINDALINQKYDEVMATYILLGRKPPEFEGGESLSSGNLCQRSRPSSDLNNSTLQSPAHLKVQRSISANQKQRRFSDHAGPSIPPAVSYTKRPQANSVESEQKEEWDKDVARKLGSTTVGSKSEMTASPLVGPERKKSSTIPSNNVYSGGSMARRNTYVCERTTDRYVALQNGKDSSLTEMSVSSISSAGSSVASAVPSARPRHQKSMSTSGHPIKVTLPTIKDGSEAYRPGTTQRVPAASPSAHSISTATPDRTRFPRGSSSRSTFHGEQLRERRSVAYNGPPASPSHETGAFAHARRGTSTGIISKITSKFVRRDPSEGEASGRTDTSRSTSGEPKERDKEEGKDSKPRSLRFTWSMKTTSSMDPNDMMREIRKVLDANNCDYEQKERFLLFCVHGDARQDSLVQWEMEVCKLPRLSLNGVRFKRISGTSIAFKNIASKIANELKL

Work on `Cc1cnc(N[C@H]2CC[C@H](N)CC2)nc1-c1cnc2ccc(-c3ccccc3)cn12` [CDDD11-8] yielded a remaining activity at 1 µM (MARK1) of 46.6%, a GI50 (HL60) of 0.475 ± 0.025 µM and a GI50 (JURKAT) of 0.599 ± 0.09 µM. For the same molecule, the GI50 (K-562) was 1.5 ± 0.047 µM, the GI50 (MOLM-13; Homo sapiens) was < 0.1 µM and the GI50 (MOLM-13) was 0.07 ± 0.02 µM. The GI50 (NB4) was 0.473 ± 0.107 µM, the GI50 (PL21) was 0.339 ± 0.034 µM and the GI50 (PL21; PL-21, 72 h) was 0.34 µM. For the same molecule, the GI50 (THP-1; Homo sapiens) was 0.46 µM, the GI50 (THP-1) was 0.459 ± 0.04 µM and the GI50 (U937) was 0.713 ± 0.093 µM. For the same molecule, the “increase of sub-G1 cell population” value (MOLM-13 cells) was “greater than 40 fold”, the “increase in the G1 population (increment)” value (MV4-11 cells; MV4-11, 0.3 µM) was 16% and the “increase of sub-G1 cell population” value (MV4-11 cells; MV4-11, 1 µM) was “greater than 40 fold”.
